According to ChEMBL document CHEMBL3853319, “Tyrosine Kinase Inhibitors. 20. Optimization of Substituted Quinazoline and Pyrido[3,4-d]pyrimidine Derivatives as Orally Active, Irreversible Inhibitors of the Epidermal Growth Factor Receptor Family” (J Med Chem, 2016):
Each block holds one molecule with its values, some of them ahead of it.

Legend:
in vitro [1] = settings: rat, liver microsomes
in vitro [2] = settings: human, liver microsomes
in vitro [3] = settings: rat, hepatocytes
in vitro [4] = settings: human, hepatocytes
[5] = Half life in Beagle dog at 50 mg/kg/day, po by LC/MS analysis; format: ADME, organism-based, Canis lupus familiaris; settings: in vivo
[6] = Half life in overnight fasted cynomolgus monkey at 25 mg/kg/day, po by LC/MS analysis; format: ADME, organism-based, Macaca fascicularis; settings: in vivo
[7] = Half life in overnight fasted cynomolgus monkey at 5 mg/kg/day, iv by LC/MS analysis; format: ADME, organism-based, Macaca fascicularis; settings: in vivo
[8] = Half life in human plasma at 30 to 60 mg; format: ADME, cell-free
in vivo [9] = settings: Sprague-Dawley, rat, po, 50 mg/kg
in vivo [10] = settings: cynomolgus monkey, po, 25 mg/kg
in vivo [11] = settings: Sprague-Dawley, rat, po, 50 mg/kg; remark: listed apart in the source
in vivo [12] = settings: beagle, dog, po, 50 mg/kg
in vivo [13] = settings: cynomolgus monkey, po, 25 mg/kg; remark: listed apart in the source
in vivo [14] = settings: Sprague-Dawley, rat, iv, 5 mg/kg
in vivo [15] = settings: beagle, dog, iv, 5 mg/kg
in vivo [16] = settings: cynomolgus monkey, iv, 5 mg/kg
in vivo [17] = settings: Sprague-Dawley, rat, iv, 5 mg/kg; remark: listed apart in the source
in vivo [18] = settings: beagle, dog, iv, 5 mg/kg; remark: listed apart in the source
in vivo [19] = settings: Sprague-Dawley, rat, po, 50 mg/kg; remark: listed apart in the source
in vivo [20] = settings: Sprague-Dawley, rat, iv, 5 mg/kg; remark: listed apart in the source
in vivo [21] = settings: beagle, dog, iv, 5 mg/kg; remark: listed apart in the source
in vivo [22] = settings: Sprague-Dawley, rat, po, 50 mg/kg; remark: listed apart in the source
in vivo [23] = settings: cynomolgus monkey, po, 25 mg/kg; remark: listed apart in the source
[24] = Terminal half life in patient plasma with advanced solid tumor administered at 75 mg; format: ADME; settings: human, read-out: beta t1/2 (converted)

half-life at 5 µM (in vitro [1]): > 0.667 h
half-life at 5 µM (in vitro [2]): > 0.667 h
half-life at 1 µM (in vitro [3]): 1.68 h
half-life at 1 µM (in vitro [4]): 3.75 h
SMILES: COc1cc2ncnc(Nc3ccc(F)c(Cl)c3)c2cc1OCCCN1CCOCC1 [GEFITINIB]

half-life [5]: 20.9 h
half-life [6]: 12.1 h
half-life [7]: 5.7 h
half-life [8]: 59 h
Cmax at 144 h (in vivo [9]): 630 ng/mL
Cmax at 144 h (in vivo [10]): 220 ng/mL
AUC at 144 h (in vivo [11]): 20500 ng·h/mL
AUC at 144 h (in vivo [12]): 25200 ng·h/mL
AUC at 144 h (in vivo [13]): 5400 ng·h/mL
AUC at 144 h (in vivo [14]): 2100 ng·h/mL
clearance at 144 h (in vivo [15]): 24.4 mL/min/kg
clearance at 144 h (in vivo [16]): 44.1 mL/min/kg
Vd at 144 h (in vivo [17]): 34.2 L/kg
Vd at 144 h (in vivo [18]): 28 L/kg
half-life (in vivo [19]): 19.4 h
half-life (in vivo [20]): 9.8 h
half-life (in vivo [21]): 15.9 h
bioavailability at 144 h (in vivo [22]): 80%
bioavailability at 144 h (in vivo [23]): 56%
half-life at 5 µM (in vitro [1]): > 0.667 h
half-life at 5 µM (in vitro [2]): > 0.667 h
half-life at 1 µM (in vitro [3]): 2.38 h
half-life at 1 µM (in vitro [4]): 4.15 h
SMILES: COc1cc2ncnc(Nc3ccc(F)c(Cl)c3)c2cc1NC(=O)/C=C/CN1CCCCC1 [DACOMITINIB ANHYDROUS]

half-life [24]: 21.7 h
SMILES: CCOc1cc2ncc(C#N)c(Nc3ccc(F)c(Cl)c3)c2cc1NC(=O)/C=C/CN(C)C [PELITINIB]
